# Reference: ChEMBL document CHEMBL5034019, “Discovery of the Next-Generation Pan-TRK Kinase Inhibitors for the Treatment of Cancer” (J Med Chem, 2021)
# pIC50: −log10 of the molar value. The source made the active and inactive calls. No cut-off for these calls is given here.
# Assays:
# [1] = tested on: Tyrosine-protein kinase Blk (Homo sapiens), P51451 [UNDEFINED MUTATION]; assay: Inhibition of full-length recombinant human BLK M287V mutant assessed as residual activity at 0.5 uM using poly(Glu, Tyr) 4:1 as substrate measured after 40 mins in presence of [gamma33P]ATP by scintillation counting method relative to control
# [2] = target: Macrophage-stimulating protein receptor (Homo sapiens) (UniProt Q04912); assay: Inhibition of recombinant human Ron (983 to end residues) assessed as residual activity at 0.5 uM using GGMEDIYFEFMGGKKK as substrate incubated for 40 mins in presence of [gamma33P]ATP by scintillation counting based radiometry assay relative to control
# [3] = target: Fibroblast growth factor receptor 1 (Homo sapiens) (UniProt P11362); assay: Inhibition of recombinant human FGFR1 (456 to 765 residues) assessed as residual activity at 0.5 uM using KKKSPGEYVNIEF as substrate at 40 mins in presence of [gamma-33ATP] by scintillation counting based radiometry assay relative to control
# [4] = tested on: Hepatocyte growth factor receptor (Homo sapiens), P08581 [Y1248C]; assay: Inhibition of recombinant human Met Y1248C mutant (974 to end residues) assessed as residual activity at 0.5 uM using KKKGQEEEYVFIE as substrate incubated for 40 mins in presence of [gamma-33P]-ATP by scintillation counting method relative to control
# [5] = C0 in male Sprague-Dawley rat at 2 mg/kg, iv measured up to 24 hrs by LC/MS/MS analysis; format: ADME, organism-based; conditions: in vivo
# [6] = target: Hepatocyte growth factor receptor (Homo sapiens) (UniProt P08581); assay: Inhibition of recombinant human MET (974 to end residues) assessed as residual activity at 0.5 uM using KKKGQEEEYVFIE as substrate incubated for 40 mins in presence of [gamma-33ATP by scintillation counting based radiometry assay relative to control
# [7] = Half life in male Sprague-Dawley rat at 2 mg/kg, iv measured up to 24 hrs by LC-MS/MS analysis; format: ADME, organism-based; conditions: in vivo
# [8] = tested on: Epidermal growth factor receptor (Homo sapiens), P00533 [T790M]; assay: Inhibition of recombinant human EGFR T790M mutant (696 to end residues) assessed as residual activity at 0.5 uM using poly(Glu, Tyr) 4:1 as substrate at 40 mins in presence of [gamma-33ATP] by scintillation counting based radiometry assay relative to control
# [9] = tested on: Mast/stem cell growth factor receptor Kit (Homo sapiens), P10721 [D816H]; assay: Inhibition of recombinant human C-Kit D816H mutant (544 to end residues) assessed as residual activity at 0.5 uM poly(Glu, Tyr) 4:1 as substrate incubated 40 mins in presence of [gamma-33ATP] by scintillation counting based radiometry assay relative to control
# [10] = tested on: Hepatocyte growth factor receptor (Homo sapiens), P08581 [Y1248H]; assay: Inhibition of recombinant human Met Y1248H mutant (974 to end residues) assessed as residual activity at 0.5 uM using KKKGQEEEYVFIE as substrate incubated for 40 mins in presence of [gamma-33P]-ATP by scintillation counting method relative to control
# BaF3 [11] = assay: Antitumor activity against mouse BaF3 cells transfected with LMNA-NTRK1-G595R mutant xenografted in mouse assessed as tumor growth inhibition at 5 to 20 mg/kg, po administered once daily for 21 days and measured twice weekly; conditions: dose 5-20 mg/kg, time 21.0 day
# [12] = Oral bioavailability in male Sprague-Dawley rat at 10 mg/kg measured up to 24 hrs by LC/MS/MS analysis; format: ADME, organism-based; conditions: in vivo
# [13] = target: NT-3 growth factor receptor (Homo sapiens, UniProt Q16288); assay: Inhibition of human TrkC (510 to end residues) assessed as residual activity at 0.5 uM using GEEPLYWSFPAKKK as substrate measured after 40 mins in presence of [gamma33P]ATP by scintillation counting method relative to control
# [14] = target: Proto-oncogene tyrosine-protein kinase ROS (Homo sapiens, UniProt P08922)
# Description: Inhibition of ROS1 (unknown origin) incubated for 120 mins in presence of 33P-ATP
# [15] = target: T1, High affinity nerve growth factor receptor (Homo sapiens, UniProt P04629)
# Description: Inhibition of TrKA (unknown origin) incubated for 120 mins in presence of 33P-ATP
# [16] = target: Vascular endothelial growth factor receptor 2 (Homo sapiens) (UniProt P35968); assay: Inhibition of human KDR (790 to end residues) assessed as residual activity at 0.5 uM using myelin basic protein as substrate after 40 mins by [gamma-33ATP] radiometric assay relative to control
# [17] = target: T1, High affinity nerve growth factor receptor; assay: Inhibition of human TrkA (440 to end residues) assessed as residual activity at 0.5 uM using KKKSPGEYVNIEFG as substrate measured after 40 mins in presence of [gamma33P]ATP by scintillation counting method relative to control
# [18] = target: Voltage-gated inwardly rectifying potassium channel KCNH2 (Homo sapiens, UniProt Q12809); assay: Inhibition of human ERG
# BaF3 [19] = assay: Antitumor activity against mouse BaF3 cells transfected with ETV6-NTRK3 xenografted in mouse assessed as tumor growth inhibition at 5 to 20 mg/kg, po administered once daily for 21 days and measured twice weekly; conditions: dose 5-20 mg/kg, time 21.0 day
# [20] = target: Mast/stem cell growth factor receptor Kit (Homo sapiens) (UniProt P10721); assay: Inhibition of recombinant human c-Kit (544 to end residues) assessed as residual activity at 0.5 uM using poly(Glu, Tyr) 4:1 as substrate measured after 40 mins in presence of [gamma33P]ATP by scintillation counting method
# [21] = Clearance in Sprague-Dawley rat at 3 mg/kg measured up to 24 hrs by LC/MS/MS analysis; format: ADME, organism-based; conditions: in vivo
# [22] = Toxicity in mouse xenografted with mouse BaF3 cells transfected with LMNA-NTRK1 assessed as death at 100 mg/kg, po administered once daily for 21 days and measured twice weekly; conditions: in vivo, 504 h
# [23] = Toxicity in mouse xenografted with mouse BaF3 cells transfected with ETV6-NTRK3-G623R mutant assessed as weight loss at 100 mg/kg, po administered once daily for 21 days and measured twice weekly; conditions: in vivo, 504 h
# [24] = Volume of distribution in Sprague-Dawley rat at 3 mg/kg measured up to 24 hrs by LC-MS/MS analysis; format: ADME, organism-based; conditions: in vivo
# [25] = Toxicity in […] xenografted with mouse BaF3 cells transfected with ETV6-NTRK3-G623R mutant assessed as death at 100 mg/kg, po administered once daily for 21 days and measured twice weekly; format: organism-based; conditions: in vivo, 504 h, time 21 day
# [26] = Toxicity in mouse xenografted with mouse BaF3 cells transfected with LMNA-NTRK1-G595R mutant assessed as unkempt appearance at 100 mg/kg, po administered once daily for 21 days and measured twice weekly; conditions: in vivo, 504 h
# Sequence of Macrophage-stimulating protein receptor (Homo sapiens) (Q04912 25-304 limits assumed): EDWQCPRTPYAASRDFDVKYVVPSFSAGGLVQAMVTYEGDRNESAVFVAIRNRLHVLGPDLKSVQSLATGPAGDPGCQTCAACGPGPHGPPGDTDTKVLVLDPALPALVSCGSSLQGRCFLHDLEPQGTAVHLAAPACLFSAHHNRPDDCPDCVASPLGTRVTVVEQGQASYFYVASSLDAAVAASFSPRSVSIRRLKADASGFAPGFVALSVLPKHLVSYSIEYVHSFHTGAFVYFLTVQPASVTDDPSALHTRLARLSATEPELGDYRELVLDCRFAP
# Sequence of Macrophage-stimulating protein receptor (Homo sapiens) (Q04912 310-1400 limits assumed): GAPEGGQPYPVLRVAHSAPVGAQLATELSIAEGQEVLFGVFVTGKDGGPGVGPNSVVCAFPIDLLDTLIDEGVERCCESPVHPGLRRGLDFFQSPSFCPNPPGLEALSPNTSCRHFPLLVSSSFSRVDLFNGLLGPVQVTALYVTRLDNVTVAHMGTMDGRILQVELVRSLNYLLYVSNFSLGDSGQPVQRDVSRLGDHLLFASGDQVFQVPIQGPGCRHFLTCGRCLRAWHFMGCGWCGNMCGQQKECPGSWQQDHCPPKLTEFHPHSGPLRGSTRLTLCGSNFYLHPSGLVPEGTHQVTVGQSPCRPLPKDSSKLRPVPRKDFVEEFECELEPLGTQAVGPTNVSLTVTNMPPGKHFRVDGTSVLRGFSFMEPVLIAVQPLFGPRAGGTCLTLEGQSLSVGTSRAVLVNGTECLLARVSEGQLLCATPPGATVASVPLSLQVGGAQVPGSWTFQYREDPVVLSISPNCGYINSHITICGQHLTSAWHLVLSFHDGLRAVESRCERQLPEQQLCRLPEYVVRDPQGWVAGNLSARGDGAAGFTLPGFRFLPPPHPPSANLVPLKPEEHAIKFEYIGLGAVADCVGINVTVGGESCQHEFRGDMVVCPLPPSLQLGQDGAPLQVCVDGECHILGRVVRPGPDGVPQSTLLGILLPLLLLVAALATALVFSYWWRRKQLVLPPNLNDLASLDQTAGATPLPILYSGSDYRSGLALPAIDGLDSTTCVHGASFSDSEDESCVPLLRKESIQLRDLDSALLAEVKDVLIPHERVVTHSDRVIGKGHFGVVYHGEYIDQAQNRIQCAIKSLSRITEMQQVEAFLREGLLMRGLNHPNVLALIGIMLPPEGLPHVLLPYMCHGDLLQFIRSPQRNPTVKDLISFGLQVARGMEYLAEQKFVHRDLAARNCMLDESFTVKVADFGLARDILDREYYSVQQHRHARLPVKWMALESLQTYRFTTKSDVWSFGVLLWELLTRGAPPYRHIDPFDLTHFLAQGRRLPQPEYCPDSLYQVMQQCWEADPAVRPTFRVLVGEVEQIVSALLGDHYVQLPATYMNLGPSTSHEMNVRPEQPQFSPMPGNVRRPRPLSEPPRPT
# Sequence of Fibroblast growth factor receptor 1 (Homo sapiens) (P11362 22-822 limits assumed): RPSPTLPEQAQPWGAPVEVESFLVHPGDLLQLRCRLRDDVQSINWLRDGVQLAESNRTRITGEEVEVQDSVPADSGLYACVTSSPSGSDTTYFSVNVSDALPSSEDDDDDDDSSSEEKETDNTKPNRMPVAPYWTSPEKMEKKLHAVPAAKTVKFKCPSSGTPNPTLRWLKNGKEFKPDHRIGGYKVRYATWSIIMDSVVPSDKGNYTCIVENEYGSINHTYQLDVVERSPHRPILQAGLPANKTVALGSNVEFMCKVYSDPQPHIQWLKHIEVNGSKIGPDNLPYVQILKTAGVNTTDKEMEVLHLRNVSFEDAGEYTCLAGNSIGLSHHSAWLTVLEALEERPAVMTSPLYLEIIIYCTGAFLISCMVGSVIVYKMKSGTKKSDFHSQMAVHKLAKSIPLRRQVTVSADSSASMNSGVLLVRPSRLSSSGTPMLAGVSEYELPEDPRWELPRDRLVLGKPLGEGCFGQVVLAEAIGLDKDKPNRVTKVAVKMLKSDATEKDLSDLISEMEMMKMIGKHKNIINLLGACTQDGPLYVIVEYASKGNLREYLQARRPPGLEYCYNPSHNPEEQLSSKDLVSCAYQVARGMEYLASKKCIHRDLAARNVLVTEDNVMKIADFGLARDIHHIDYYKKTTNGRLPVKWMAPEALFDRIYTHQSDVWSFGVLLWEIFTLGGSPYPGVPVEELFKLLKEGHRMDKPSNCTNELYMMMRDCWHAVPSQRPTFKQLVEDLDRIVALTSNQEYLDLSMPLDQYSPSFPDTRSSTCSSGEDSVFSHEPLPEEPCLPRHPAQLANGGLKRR
# Sequence of Proto-oncogene tyrosine-protein kinase ROS (P08922 whole entry): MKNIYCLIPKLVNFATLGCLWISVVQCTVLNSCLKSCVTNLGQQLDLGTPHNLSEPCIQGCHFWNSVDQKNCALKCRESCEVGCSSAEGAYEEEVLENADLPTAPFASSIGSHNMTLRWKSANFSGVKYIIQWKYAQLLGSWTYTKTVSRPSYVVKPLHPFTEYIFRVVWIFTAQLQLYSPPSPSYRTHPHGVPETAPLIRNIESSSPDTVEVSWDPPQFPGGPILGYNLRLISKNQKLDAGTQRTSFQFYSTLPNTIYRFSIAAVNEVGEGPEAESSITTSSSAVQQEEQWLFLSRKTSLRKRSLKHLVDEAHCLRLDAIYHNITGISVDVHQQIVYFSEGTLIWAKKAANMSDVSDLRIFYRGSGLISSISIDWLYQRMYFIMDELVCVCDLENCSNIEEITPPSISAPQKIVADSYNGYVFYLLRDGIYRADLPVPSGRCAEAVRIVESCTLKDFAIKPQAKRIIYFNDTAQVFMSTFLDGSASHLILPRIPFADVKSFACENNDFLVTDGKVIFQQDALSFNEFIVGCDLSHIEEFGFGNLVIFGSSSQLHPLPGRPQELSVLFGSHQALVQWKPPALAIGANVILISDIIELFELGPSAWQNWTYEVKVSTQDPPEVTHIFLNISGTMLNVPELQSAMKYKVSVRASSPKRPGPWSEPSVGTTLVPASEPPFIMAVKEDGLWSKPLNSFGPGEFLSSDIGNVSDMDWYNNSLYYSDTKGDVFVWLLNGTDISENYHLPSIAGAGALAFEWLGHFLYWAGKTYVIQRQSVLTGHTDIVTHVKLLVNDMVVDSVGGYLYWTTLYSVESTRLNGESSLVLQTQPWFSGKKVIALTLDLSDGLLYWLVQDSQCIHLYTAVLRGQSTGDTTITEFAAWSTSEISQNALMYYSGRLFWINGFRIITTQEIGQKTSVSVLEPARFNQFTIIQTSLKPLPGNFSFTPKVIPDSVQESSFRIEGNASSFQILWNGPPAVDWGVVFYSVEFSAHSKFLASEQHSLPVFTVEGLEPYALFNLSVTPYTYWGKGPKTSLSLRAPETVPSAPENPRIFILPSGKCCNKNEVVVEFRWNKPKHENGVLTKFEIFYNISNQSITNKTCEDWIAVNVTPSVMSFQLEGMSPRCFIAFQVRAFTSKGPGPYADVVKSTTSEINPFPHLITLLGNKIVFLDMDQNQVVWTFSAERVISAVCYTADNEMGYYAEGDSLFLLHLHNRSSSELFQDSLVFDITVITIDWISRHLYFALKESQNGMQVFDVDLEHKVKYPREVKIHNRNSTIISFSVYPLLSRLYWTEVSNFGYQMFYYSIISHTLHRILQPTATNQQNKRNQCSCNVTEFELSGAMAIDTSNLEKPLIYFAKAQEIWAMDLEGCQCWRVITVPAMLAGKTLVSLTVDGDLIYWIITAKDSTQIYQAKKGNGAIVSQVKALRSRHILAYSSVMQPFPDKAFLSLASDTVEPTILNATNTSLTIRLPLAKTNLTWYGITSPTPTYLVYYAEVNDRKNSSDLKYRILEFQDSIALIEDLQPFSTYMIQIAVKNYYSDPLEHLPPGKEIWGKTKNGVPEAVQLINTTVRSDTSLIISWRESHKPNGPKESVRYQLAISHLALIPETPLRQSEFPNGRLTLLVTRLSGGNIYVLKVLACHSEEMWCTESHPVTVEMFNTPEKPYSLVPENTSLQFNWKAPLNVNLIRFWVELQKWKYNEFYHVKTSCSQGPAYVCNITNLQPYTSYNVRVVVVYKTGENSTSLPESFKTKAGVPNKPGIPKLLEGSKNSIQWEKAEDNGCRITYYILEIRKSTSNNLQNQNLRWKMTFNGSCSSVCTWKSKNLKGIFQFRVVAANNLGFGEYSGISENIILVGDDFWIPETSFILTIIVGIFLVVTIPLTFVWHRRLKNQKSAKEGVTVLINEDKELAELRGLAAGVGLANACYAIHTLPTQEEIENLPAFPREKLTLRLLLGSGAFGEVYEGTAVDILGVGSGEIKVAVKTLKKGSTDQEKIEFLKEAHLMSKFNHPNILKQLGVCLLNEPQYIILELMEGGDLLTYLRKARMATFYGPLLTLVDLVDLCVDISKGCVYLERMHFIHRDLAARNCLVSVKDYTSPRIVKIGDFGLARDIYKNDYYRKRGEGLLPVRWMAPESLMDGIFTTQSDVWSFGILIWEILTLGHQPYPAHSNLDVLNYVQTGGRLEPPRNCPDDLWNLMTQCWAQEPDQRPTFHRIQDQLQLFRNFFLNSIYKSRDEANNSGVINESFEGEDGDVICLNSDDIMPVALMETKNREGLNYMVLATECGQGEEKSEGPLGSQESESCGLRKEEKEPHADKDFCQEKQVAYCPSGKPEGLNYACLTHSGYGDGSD
# Sequence of Tyrosine-protein kinase Blk (Homo sapiens), P51451 [UNDEFINED MUTATION] (P51451 whole entry, looked up, stated change not applied): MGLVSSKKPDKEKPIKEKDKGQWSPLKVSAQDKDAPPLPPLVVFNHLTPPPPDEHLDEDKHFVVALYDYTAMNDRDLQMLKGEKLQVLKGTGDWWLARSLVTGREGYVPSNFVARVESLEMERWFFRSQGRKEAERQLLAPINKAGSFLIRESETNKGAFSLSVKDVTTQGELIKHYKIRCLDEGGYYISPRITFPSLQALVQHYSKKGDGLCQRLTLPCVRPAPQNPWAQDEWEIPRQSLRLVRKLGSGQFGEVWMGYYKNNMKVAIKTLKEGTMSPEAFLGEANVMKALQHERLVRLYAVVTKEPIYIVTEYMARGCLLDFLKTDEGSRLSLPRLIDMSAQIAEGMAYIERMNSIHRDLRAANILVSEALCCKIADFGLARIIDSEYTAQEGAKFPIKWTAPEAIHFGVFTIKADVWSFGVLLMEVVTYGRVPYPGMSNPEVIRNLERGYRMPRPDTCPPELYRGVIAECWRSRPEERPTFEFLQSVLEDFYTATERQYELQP
smiles,measurement,setting,value
O=C1NC2(CC2)COc2ncc(F)cc2[C@H]2COCCN2c2ccn3ncc1c3n2,Activity,[1],46%
same,Activity,[2],112%
same,Activity,[3],92%
same,Activity,[4],85%
same,C0 at 24 h,[5],4.12 µM
same,Activity,[6],98%
same,half-life,[7],52.3 min
same,Activity,[8],105%
same,Activity,[9],96%
same,Activity,[10],89%
same,Activity,BaF3 [11],Active
same,bioavailability,[12],56%
same,Activity,[13],-3%
same,pIC50,[14],9.00
same,pIC50,[15],8.62
same,Activity,[16],108%
same,Activity,[17],2%
same,pIC50,[18],4.89
same,Activity,BaF3 [19],Active
same,Activity,[20],100%
C[C@@H]1CCc2ncc(F)cc2[C@H]2CCCN2c2ccn3ncc(c3n2)C(=O)N1 [SELITRECTINIB],clearance,[21],11.8 mL/min/kg
same,Activity,[22],Toxic
same,Activity,[23],Toxic
same,Vd,[24],0.5 L/kg
same,Activity,[25],Toxic
same,Activity,[26],Toxic
